This note sets out measurements from patent US5985844A, “Homoerythromycin A derivatives modified at the 4"-and 8A-positions” (Merck & Co., Inc., priority 1992, dated 1999).

Values after ≈ are worked out from the molar mass of the structure shown. Like-named read-outs stand apart in the source and are kept apart here.

Common to all, as to test: liquid turbidimetric microtiter MIC, broth media
Common to all, as to type: cell-based

Test [1] deals with Staphylococcus aureus MB 2865. The text has this:
(§1) The antibacterial activities of the compounds of Examples 8 and 10 against a panel of aerobic Gram positive and negative bacteria is shown in Table I. Similarly, the antibacterial activities of the compounds of Examples 89, 94, 96, and 97 are presented in Table II. The assay employs a liquid turbidimetric microtiter method for the determination of the minimum inhibitory concentration (MIC) in broth media. […] The MIC is generally not an absolute value but rather a concentration range that falls within a two-fold dilution limit. Generally twelve two-fold dilutions of the test compound are employed with the initial concentration set at 128 mcg/ml.

For test [2], the system named is Klebsiella pneumoniae MB 4005.
Excerpt: as §1

The subject of test [3] is Enterococcus faecalis MB 5407.
Excerpt: as §1

For test [4], the system named is Streptococcus pneumoniae CL 2883.
Excerpt: as §1

Test [5] concerns Staphylococcus epidermidis MB 5414.
Excerpt: as §1

For test [6], the system named is Escherichia coli MB 2884.
Excerpt: as §1

The test system of test [7] is Haemophilus influenzae MB 5363.
Excerpt: as §1

The test system of test [8] is Enterobacter cloacae CL 4298.
Excerpt: as §1

The test system of test [9] is Haemophilus influenzae AT 43163.
Excerpt: as §1

Test [10] deals with Streptococcus pyogenes MB 2874.
Excerpt: as §1

Test [11] has as its system Enterococcus faecium MB 5416. The note with it: MB5416.
Excerpt: as §1

Test [12] relates to Pseudomonas stutzeri MB 1231. The following applies: Stutzerimonas stutzeri, MB1231.
Excerpt: as §1

The subject of test [13] is Streptococcus pyogenes MB 54061. The following applies: MB54061.
Excerpt: as §1

Test [14] has as its system Escherichia coli MB 4926. The note with it: MB4926.
Excerpt: as §1

Test [15] has as its system Streptococcus agalactiae CL 1343. The note with it: CL1343.
Excerpt: as §1

For test [16], the system named is Staphylococcus haemolyticus MB 5412. The following applies: MB5412.
Excerpt: as §1

In test [17] the test system is Streptococcus viridans CL 2943. The following applies: CL2943.
Excerpt: as §1

Take “4"-Deoxy-4"-amino-9-deoxo-8a-aza-8a-methyl-8a-homoerythromycin A [Example 94]”: the MIC in test [1] was 1 µg/mL; in test [2], 0.12 µg/mL; in [3], 4 µg/mL; in [4], not above 0.06 µg/mL; in test [5], 0.5 µg/mL; in test [6] it was 0.12 µg/mL. The MIC in test [7] is 0.5 µg/mL; in test [8], not above 0.06 µg/mL; in test [9] it was 0.25 µg/mL; in [10], not above 0.06 µg/mL.
In the case of `CC[C@H]1OC(=O)[C@H](C)[C@@H](O[C@H]2C[C@@](C)(OC)[C@@H](O)[C@H](C)O2)[C@H](C)[C@@H](O[C@@H]2O[C@H](C)C[C@H](N(C)C)[C@H]2O)[C@](C)(O)C[C@@H](C)C(=O)[C@H](C)[C@@H](O)[C@]1(C)O` [Erythromycin A, erythromycin A], the MIC in [1] is 0.12 µg/mL (≈ 0.164 µM); in test [2], 32 µg/mL (≈ 43.6 µM); in test [3] it was 1 µg/mL (≈ 1.36 µM); in [4] it was not above 0.06 µg/mL; in [5], 0.12 µg/mL (≈ 0.164 µM); in test [6] (MB2884, read-out: MIC), 16 µg/mL (≈ 21.8 µM). For the same compound, the MIC in test [7] is 2 µg/mL (≈ 2.73 µM); in test [8], 16 µg/mL (≈ 21.8 µM); in [9], 2 µg/mL (≈ 2.73 µM); in test [10] it was not above 0.06 µg/mL.
For `CC[C@H]1OC(=O)[C@H](C)[C@@H](O[C@H]2C[C@@](C)(OC)[C@@H](O)[C@H](C)O2)[C@H](C)[C@@H](O[C@@H]2O[C@H](C)C[C@H](N(C)C)[C@H]2O)[C@](C)(O)C[C@@H](C)NC[C@H](C)[C@@H](O)[C@]1(C)O` [Example 8, 9-Deoxo-8a-aza-8a-homoerythromycin A], the MIC in [11] is 0.25 µg/mL (≈ 0.34 µM); in test [12], not above 0.06 µg/mL; in [1] (MB2865, read-out: MIC), 0.5 µg/mL (≈ 0.68 µM); in [2] (MB4005, read-out: MIC), 8 µg/mL (≈ 10.9 µM); in [3] (MB5407, read-out: MIC), 8 µg/mL (≈ 10.9 µM); in test [4] (CL2883, read-out: MIC), not above 0.06 µg/mL. Further, the MIC is 1 µg/mL (≈ 1.36 µM) in test [5] (MB5414, read-out: MIC); 4 µg/mL (≈ 5.44 µM) in test [6] (MB2884, read-out: MIC); 128 µg/mL (≈ 174 µM) in test [13]; 2 µg/mL (≈ 2.72 µM) in test [14]; not above 0.06 µg/mL in test [15]; 0.5 µg/mL (≈ 0.68 µM) in test [16]. The MIC was 8 µg/mL (≈ 10.9 µM) in test [17] and not above 0.06 µg/mL in test [10] (MB2874, read-out: MIC).
In the case of `CC[C@H]1OC(=O)[C@H](C)[C@@H](O[C@H]2C[C@@](C)(OC)[C@@H](O)[C@H](C)O2)[C@H](C)[C@@H](O[C@@H]2O[C@H](C)C[C@H](N(C)C)[C@H]2O)[C@](C)(O)C[C@@H](C)N(C)C[C@H](C)[C@@H](O)[C@]1(C)O` [Example 10, 9-Deoxo-8a-aza-8a-methyl-8a-homoerythromycin A], the MIC was 0.25 µg/mL (≈ 0.334 µM) in test [11]; not above 0.06 µg/mL in test [12]; 0.5 µg/mL (≈ 0.668 µM) in test [1] (MB2865, read-out: MIC); 2 µg/mL (≈ 2.67 µM) in [2] (MB4005, read-out: MIC); 4 µg/mL (≈ 5.34 µM) in [3] (MB5407, read-out: MIC); not above 0.06 µg/mL in [4] (CL2883, read-out: MIC). The MIC in [5] (MB5414, read-out: MIC) was 1 µg/mL (≈ 1.34 µM); in test [6] (MB2884, read-out: MIC), 1 µg/mL (≈ 1.34 µM); in test [13] it was 128 µg/mL (≈ 171 µM); in test [14], 0.06 µg/mL (≈ 0.0801 µM); in test [15], not above 0.06 µg/mL; in [16], 0.5 µg/mL (≈ 0.668 µM). In addition, the MIC in test [17] is 1 µg/mL (≈ 1.34 µM); in [10] (MB2874, read-out: MIC), not above 0.06 µg/mL.
Consider `CC[C@H]1OC(=O)[C@H](C)[C@@H](O[C@H]2C[C@@](C)(OC)[C@H](O)[C@H](C)O2)[C@H](C)[C@@H](O[C@@H]2O[C@H](C)C[C@H](N(C)C)[C@H]2O)[C@](C)(O)C[C@@H](C)N(C)C[C@H](C)[C@@H](O)[C@]1(C)O` [Example 89, 4"-epi-9-deoxo-8a-aza-8a-methyl-8a-homoerythromycin A], for which the MIC was 0.5 µg/mL (≈ 0.668 µM) in [1] (MB2865, read-out: MIC); 1 µg/mL (≈ 1.34 µM) in [2] (MB4005, read-out: MIC); 1 µg/mL (≈ 1.34 µM) in test [3] (MB5407, read-out: MIC); not above 0.06 µg/mL in [4] (CL2883, read-out: MIC); 0.25 µg/mL (≈ 0.334 µM) in test [5] (MB5414, read-out: MIC); 1 µg/mL (≈ 1.34 µM) in test [6] (MB2884, read-out: MIC). The MIC in [7] (MB5363, read-out: MIC) was 0.5 µg/mL (≈ 0.668 µM); in test [8] (CL4298, read-out: MIC), 0.5 µg/mL (≈ 0.668 µM); in [9] (AT43163, read-out: MIC) it was 0.5 µg/mL (≈ 0.668 µM); in test [10] (MB2874, read-out: MIC), not above 0.06 µg/mL.
As to `CC[C@H]1OC(=O)[C@H](C)[C@@H](O[C@H]2C[C@@](C)(OC)[C@@H](N)[C@H](C)O2)[C@H](C)[C@@H](O[C@@H]2O[C@H](C)C[C@H](N(C)C)[C@H]2O)[C@](C)(O)C[C@@H](C)N(C)C[C@H](C)[C@@H](O)[C@]1(C)O` [Example 96, 4"-Deoxy-4"-(S)-amino-9-deoxo-8a-aza-8a-methyl-8a-homoerythromycin A], the MIC in test [1] is 1 µg/mL (≈ 1.34 µM); in [2], 0.12 µg/mL (≈ 0.16 µM); in test [3], 2 µg/mL (≈ 2.67 µM); in test [4], not above 0.06 µg/mL; in test [5], 0.51 µg/mL (≈ 0.682 µM); in test [6], 0.12 µg/mL (≈ 0.16 µM). Moreover, the MIC was 0.25 µg/mL (≈ 0.334 µM) in test [7], not above 0.06 µg/mL in test [8], 0.25 µg/mL (≈ 0.334 µM) in test [9] and not above 0.06 µg/mL in [10].
`CC[C@H]1OC(=O)[C@H](C)[C@@H](O[C@H]2C[C@@](C)(OC)[C@H](N)[C@H](C)O2)[C@H](C)[C@@H](O[C@@H]2O[C@H](C)C[C@H](N(C)C)[C@H]2O)[C@](C)(O)C[C@@H](C)N(C)C[C@H](C)[C@@H](O)[C@]1(C)O` [Example 97, 4"-Deoxy-4"-(R)-amino-9-deoxo-8a-aza-8a-methyl-8a-homoerythromycin A]: the MIC in test [1] is 1 µg/mL (≈ 1.34 µM); in [2], 0.25 µg/mL (≈ 0.334 µM); in [3], 2 µg/mL (≈ 2.67 µM); in test [4] it was not above 0.06 µg/mL; in test [5] it was 0.5 µg/mL (≈ 0.668 µM); in test [6], 0.25 µg/mL (≈ 0.334 µM). Besides, the MIC in test [7] was 0.5 µg/mL (≈ 0.668 µM); in test [8], 0.12 µg/mL (≈ 0.16 µM); in test [9], 0.25 µg/mL (≈ 0.334 µM); in test [10] it was not above 0.06 µg/mL.
